Data set [1] relates to F. tularensis live vaccine strain (LVS). As to the kind of experiment: microbe, parasite or virus in culture. It is filed as cell-based, Francisella tularensis.
Another data set concerns F. tularensis LVS/pTC3D. It is filed as cell-based, Francisella tularensis.
The subject of the next data set is TNFα. It is filed as cell-based.
The subject of a further data set is MglA/SspA regulon. In kind it is cell-based, Francisella tularensis LVS.
The test system of the next data set is Acinetobacter baumannii. Set-up: species or system Galleria mellonella. Conditions: in vivo.
For a further data set, the system named is A. baumannii. It is filed as cell-based, Acinetobacter baumannii.
The test system of another data set is IglA. In kind it is cell-based, Francisella tularensis LVS.
A further data set deals with IglC. It is filed as cell-based, Francisella tularensis LVS.
The test system of a further data set is LpnA. It is filed as cell-based, Francisella tularensis LVS.
A further data set concerns F. tularensis LVS. It is filed as cell-based, Francisella tularensis.

Experimental findings from US12109187B2, “Antimicrobial compositions and related methods” (priority 2020, dated 2024) are described below.

Entries after “also recorded” stand apart in the source; their conditions may differ. Some results are limits rather than exact numbers.

On to `C=CCc1cc2c(c(OC)c1OC)OCO2` [dillapiole], for which the “intracellular replication of F. tularensis LVS in THP-1 monocytes (CFU)” value in data set [1] is listed as “sufficient to inhibit replication of F. tularensis”. In addition, the MIC in [1] (Francisella tularensis, read-out: minimum inhibitory concentration (MIC)) is below 7 µg/mL. Further, in the data set with F. tularensis LVS/pTC3D, the “replication of F. tularensis in RAW 264.7 mouse macrophages” value is given as “sufficient to inhibit replication of F. tularensis”. The TNFα production result in the data set on TNFα is reported as “decreased TNFα production”. Further, in the data set on MglA/SspA regulon, the “expression of virulence factors / genes controlled by MglA/SspA (incl. FPI genes)” value was “decrease in expression of several key virulence factors; also recorded: significantly decreased expression following treatment with dillapiole”. The “rate of survival of infected wax worms” value in the data set on Acinetobacter baumannii is “significantly higher rate of survival”. The “A. baumannii viability in rich growth media” value in the data set on A. baumannii was “did not diminish A. baumannii viability”. Moreover, in the data set with IglA, the IglA protein expression entry is on record as “significant reduction”. For the same compound, the IglC protein expression result with IglC is reported as “significant reduction”. Besides, the LpnA production result in the data set with LpnA is “unaffected”. Further, the “bacterial growth as determined by optical density” value with F. tularensis LVS is recorded as “did not affect bacterial growth”. Further, the “toxicity to mammalian cells” value with mammalian cells is recorded as “not toxic to mammalian cells”.
